Measurements taken from patent US20260070945A1, “MACROCYCLIC IMMUNOMODULATORS” (Bristol-Myers Squibb Company, priority 2022, published 2026).
*1 amine or outer side, *2 acyl side, *3 side chain or, on linkers, in order; H or OH if unused. Where a SMILES comes first, the peptide text is derived from it. Bridges are numbered along the chain shown (N, C = ends). [ ]: non-standard residue; d: D form. The star is where a group is joined. ξ: configuration not given here. Phe(3-CF3) = N[C@@H](Cc1cccc(C(F)(F)F)c1)C(=O)O; Phe(4-COOH) = N[C@@H](Cc1ccc(C(=O)O)cc1)C(=O)O; Bip = N[C@@H](Cc1ccc(-c2ccccc2)cc1)C(=O)O; Phe(3-Me) = Cc1cccc(C[C@H](N)C(=O)O)c1; γGlu = O=C(O)[C@H](CCC(=O)[*:2])N[*:1]; NH(CH2)12COOH = O=C(O)CCCCCCCCCCCCN*; Val(3-OH) = CC(C)(O)[C@H](N)C(=O)O; 4Pal = N[C@@H](Cc1ccncc1)C(=O)O; Cha = N[C@@H](CC1CCCCC1)C(=O)O; Cit = NC(=O)NCCC[C@H](N)C(=O)O; Thr(3ξ) = CC(O)[C@H](N)C(=O)O; 4Abz = Nc1ccc(C(=O)O)cc1; Carboxymethyl = O=C(O)C*; NMeA = CN[C@@H](C)C(=O)O; Orn = NCCC[C@H](N)C(=O)O; Aun = NCCCCCCCCCCC(=O)O; Dab = NCC[C@H](N)C(=O)O; Dap = NC[C@H](N)C(=O)O; AEEA = NCCOCCOCC(=O)O; ξV = CC(C)C(N)C(=O)O; Sar = CNCC(=O)O

target: T1, PD-1/PD-L1 interaction (PE-labeled human PD-L1-Ig binding to Jurkat cell line over-expressing human PD-1) (Homo sapiens, UniProt Q15116); assay: Jurkat-PD-1 Cell Binding High-Content Screening Assay (CBA); conditions: Jurkat-hPD-1 cells, PE-labeled PD-L1-Ig 20 nM final; read-out: Jurkat HPD1 PDL1 IC50
T1 construct: expressed in transfected cells; host or cells: Jurkat
T1 sequence (Q15116 25-288): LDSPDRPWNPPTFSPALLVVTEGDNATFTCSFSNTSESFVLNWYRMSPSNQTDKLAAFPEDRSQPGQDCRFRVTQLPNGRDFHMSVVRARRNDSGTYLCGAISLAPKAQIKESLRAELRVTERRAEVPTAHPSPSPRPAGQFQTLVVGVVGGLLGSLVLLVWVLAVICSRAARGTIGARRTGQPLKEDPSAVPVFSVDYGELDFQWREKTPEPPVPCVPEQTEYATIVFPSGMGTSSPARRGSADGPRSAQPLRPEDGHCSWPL
Summary of the method: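 Compound is added first to the PD-1-expressing Jurkat cells and held 2 h at 37 °C in serum-containing DMEM. The fluorescent PD-L1 fusion follows at 20 nM final for 1 h. Fixed, Hoechst-stained cells are then imaged for bound label.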

| SMILES | IC50 [nM] |
| --- | --- |
| Cc1cccc(C[C@@H]2NC(=O)[C@H](CC(=O)O)NC(=O)[C@H](Cc3ccc(OCC(=O)O)cc3)NC(=O)[C@H](CC(N)=O)NC(=O)CSC[C@@H](C(=O)N(C)CC(=O)NCCCCCCCCCCC(=O)O)NC(=O)[C@H](CCC(=O)O)NC(=O)[C@H](C(C)C)NC(=O)[C@H](CC3CCCCC3)NC(=O)[C@H](CCN)NC(=O)[C@@H](CC(C)C)NC(=O)[C@H](C)N(C)C(=O)[C@H](C(C)C)NC(=O)[C@H](Cc3ccc(-c4ccccc4)cc3)NC(=O)[C@H](Cc3ccc(O)cc3)NC2=O)c1 [Example 2266] ({CH2CO}-NY(Carboxymethyl)D[Phe(3-Me)]Y[Bip]V[NMeA][dL][Dab][Cha]VEC[Sar][Aun]-OH; thioether N-14) | 334 |
| CC(C)C[C@@H]1NC(=O)[C@H](Cc2c[nH]c3ccccc23)NC(=O)[C@H](CC(=O)O)NC(=O)[C@H](Cc2ccncc2)NC(=O)[C@H](Cc2ccc(OCC(=O)O)cc2)NC(=O)CSC[C@@H](C(=O)Nc2ccc(C(=O)NCCCCCCCCCCC(=O)O)cc2)NC(=O)[C@H](CCCNC(=N)N)NC(=O)[C@H](C(C)C)NC(=O)[C@H](CC2CCCCC2)NC(=O)[C@H](CCN)NC(=O)[C@@H](CC(C)C)NC(=O)[C@H](C)N(C)C(=O)[C@H](C(C)C)NC(=O)[C@H](Cc2ccc(-c3ccccc3)cc2)NC1=O [Example 1214] ({CH2CO}-Y(Carboxymethyl)[4Pal]DWL[Bip]V[NMeA][dL][Dab][Cha]VRC[4Abz][Aun]-OH; thioether N-14) | 77.2 |
| Cc1cccc(C[C@@H]2NC(=O)[C@H](CC(=O)O)NC(=O)[C@H](Cc3ccc(C(=O)O)cc3)NC(=O)[C@H](Cc3ccncc3)NC(=O)CSC[C@@H](C(=O)N[C@@H](CCN)C(=O)NCCOCCOCC(=O)NCCCCCCCCCCCCC(=O)O)NC(=O)[C@H](CCC(=O)O)NC(=O)[C@H](C(C)(C)O)NC(=O)[C@H](CC3CCCCC3)NC(=O)[C@H](CCN)NC(=O)[C@@H](CC(C)C)NC(=O)[C@H](C)N(C)C(=O)[C@H](Cc3ccc(C(=O)O)cc3)NC(=O)[C@H](Cc3ccc(-c4ccccc4)cc3)NC(=O)[C@H](Cc3ccc(C(=O)O)cc3)NC2=O)c1 [Example 1104] ({CH2CO}-[4Pal][Phe(4-COOH)]D[Phe(3-Me)][Phe(4-COOH)][Bip][Phe(4-COOH)][NMeA][dL][Dab][Cha][Val(3-OH)]EC[Dab][AEEA]-{NH(CH2)12COOH}; thioether N-14) | 559 |
| CC(C)C[C@@H]1NC(=O)[C@H](Cc2c[nH]c3ccccc23)NC(=O)[C@H](CC(=O)O)NC(=O)[C@H](Cc2ccc(O)cc2)NC(=O)[C@H](Cc2ccccc2)NC(=O)CSC[C@@H](C(=O)N[C@@H](CCCN)C(=O)NCCOCCOCC(=O)NCCCCCCCCCCC(=O)O)NC(=O)[C@H](CO)NC(=O)[C@H](C(C)C)NC(=O)[C@H](CC2CCCCC2)NC(=O)[C@H](CCN)NC(=O)[C@@H](CC(C)C)NC(=O)[C@H](C)N(C)C(=O)[C@H](C(C)C)NC(=O)[C@H](Cc2ccc(-c3ccccc3)cc2)NC1=O [Example 2148] ({CH2CO}-FYDWL[Bip]V[NMeA][dL][Dab][Cha]VSC[Orn][AEEA][Aun]-OH; thioether N-14) | 54.1 |
| Cc1cccc(C[C@@H]2NC(=O)[C@H](CC(=O)O)NC(=O)[C@H](Cc3ccc(OCC(=O)O)cc3)NC(=O)[C@H]([C@@H](C)O)NC(=O)CSC[C@@H](C(=O)N[C@@H](CCCN)C(=O)NCCOCCOCC(=O)NCCCCCCCCCCC(=O)O)NC(=O)[C@H](CO)NC(=O)[C@H](C(C)C)NC(=O)[C@H](CC3CCCCC3)NC(=O)[C@H](CC(N)=O)NC(=O)[C@@H](CC(C)C)NC(=O)[C@H](C)N(C)C(=O)[C@H](Cc3ccc(OCC(=O)O)cc3)NC(=O)[C@H](Cc3ccc(-c4ccccc4)cc3)NC(=O)[C@H](Cc3ccc(OCC(=O)O)cc3)NC2=O)c1 [Example 1367] ({CH2CO}-TY(Carboxymethyl)D[Phe(3-Me)]Y(Carboxymethyl)[Bip]Y(Carboxymethyl)[NMeA][dL]N[Cha]VSC[Orn][AEEA][Aun]-OH; thioether N-14) | 55.6 |

Other lines, results leading:

| IC50 [nM] | SMILES |
| --- | --- |
| 37.7 | CC(C)C[C@H]1NC(=O)[C@H](C)N(C)C(=O)[C@H](CCCNC(N)=O)NC(=O)[C@H](Cc2ccc(-c3ccccc3)cc2)NC(=O)[C@H](Cc2ccc(C(=O)O)cc2)NC(=O)[C@H](Cc2cccc(C(F)(F)F)c2)NC(=O)[C@H](CC(=O)O)NC(=O)[C@H](Cc2ccc(OCC(=O)O)cc2)NC(=O)[C@H](Cc2ccc(C(=O)O)cc2)NC(=O)CSC[C@@H](C(=O)N[C@@H](CCN)C(=O)NCCOCCOCC(=O)N[C@@H](CCC(=O)NCCOCCOCC(=O)NCCCCCCCCCCCCC(=O)O)C(=O)O)NC(=O)[C@H](CO)NC(=O)[C@H](C(C)(C)O)NC(=O)[C@H](CC2CCCCC2)NC(=O)[C@H](CCN)NC1=O [Example 1187] ({CH2CO}-[Phe(4-COOH)]Y(Carboxymethyl)D[Phe(3-CF3)][Phe(4-COOH)][Bip][Cit][NMeA][dL][Dab][Cha][Val(3-OH)]SC[Dab][AEEA][γGlu][AEEA]-{NH(CH2)12COOH}; thioether N-14) |
| 23.5 | Cc1cccc(C[C@@H]2NC(=O)[C@H](CC(=O)O)NC(=O)[C@H](Cc3ccc(OCC(=O)O)cc3)NC(=O)[C@H](Cc3ccc(OCC(=O)O)cc3)NC(=O)CSC[C@@H](C(=O)N[C@@H](CN)C(=O)NCCCCCCCCCCC(=O)O)NC(=O)[C@H](C(C)O)NC(=O)[C@H](C(C)C)NC(=O)[C@H](CC3CCCCC3)NC(=O)[C@H](CCN)NC(=O)[C@@H](CC(C)C)NC(=O)[C@H](C)N(C)C(=O)[C@H](C(C)C)NC(=O)[C@H](Cc3ccc(-c4ccccc4)cc3)NC(=O)[C@H](CC(C)C)NC2=O)c1 (stereo partly drawn) [Example 2333] ({CH2CO}-Y(Carboxymethyl)Y(Carboxymethyl)D[Phe(3-Me)]L[Bip]V[NMeA][dL][Dab][Cha]V[Thr(3ξ)]C[Dap][Aun]-OH; thioether N-14) |
| 16.3 | CC(C)C[C@H]1NC(=O)[C@H](C)N(C)C(=O)[C@H](CCCNC(N)=O)NC(=O)[C@H](Cc2ccc(-c3ccccc3)cc2)NC(=O)[C@H](C(C)C)NC(=O)[C@H](Cc2c[nH]c3ccccc23)NC(=O)[C@H](CC(=O)O)NC(=O)[C@H](Cc2ccc(OCC(=O)O)cc2)NC(=O)[C@H](CCCNC(=N)N)NC(=O)CSC[C@@H](C(=O)N[C@@H](CCN)C(=O)NCCCCCCCCCCC(=O)O)NC(=O)[C@H]([C@@H](C)O)NC(=O)[C@H](C(C)C)NC(=O)[C@H](CC2CCCCC2)NC(=O)[C@H](CCN)NC1=O [Example 1353] ({CH2CO}-RY(Carboxymethyl)DWV[Bip][Cit][NMeA][dL][Dab][Cha]VTC[Dab][Aun]-OH; thioether N-14) |
| 14.6 | Cc1cccc(C[C@@H]2NC(=O)[C@H](CC(=O)O)NC(=O)[C@H](Cc3ccc(OCC(=O)O)cc3)NC(=O)[C@H](CN)NC(=O)CSC[C@@H](C(=O)N[C@@H](CCN)C(=O)NCCCCCCCCCCC(=O)O)NC(=O)[C@H]([C@@H](C)O)NC(=O)[C@H](C(C)C)NC(=O)[C@H](CC3CCCCC3)NC(=O)[C@H](CCN)NC(=O)[C@@H](CC(C)C)NC(=O)[C@H](C)N(C)C(=O)[C@H](CCCNC(N)=O)NC(=O)[C@H](Cc3ccc(-c4ccccc4)cc3)NC(=O)C(C(C)C)NC2=O)c1 (stereo partly drawn) [Example 1356] ({CH2CO}-[Dap]Y(Carboxymethyl)D[Phe(3-Me)][ξV][Bip][Cit][NMeA][dL][Dab][Cha]VTC[Dab][Aun]-OH; thioether N-14) |
| 13.8 | CC(C)C[C@@H]1NC(=O)[C@H](Cc2c[nH]c3ccccc23)NC(=O)[C@H](CC(=O)O)NC(=O)[C@H](Cc2ccc(C(=O)O)cc2)NC(=O)[C@H](Cc2ccc(OCC(=O)O)cc2)NC(=O)CSC[C@@H](C(=O)NCC(=O)N[C@@H](CC(=O)O)C(=O)NCCCCCCCCCCC(=O)O)NC(=O)[C@H](CO)NC(=O)[C@H](C(C)C)NC(=O)[C@H](CC2CCCCC2)NC(=O)[C@H](CCN)NC(=O)[C@@H](CC(C)C)NC(=O)[C@H](C)N(C)C(=O)[C@H](C(C)C)NC(=O)[C@H](Cc2ccc(-c3ccccc3)cc2)NC1=O [Example 1041] ({CH2CO}-Y(Carboxymethyl)[Phe(4-COOH)]DWL[Bip]V[NMeA][dL][Dab][Cha]VSCGD[Aun]-OH; thioether N-14) |

same assay, conditions: PE-labeled PD-L1-Ig 20 nM final, Jurkat-hPD-1 cells; read-out: Jurkat HPD1 PDL1 IC50

| IC50 [nM] | SMILES |
| --- | --- |
| 4.6 | CC(=O)NCCCC[C@@H]1NC(=O)[C@H](C(C)(C)O)NC(=O)[C@H](CC2CCCCC2)NC(=O)[C@H](CCN)NC(=O)[C@@H](CC(C)C)NC(=O)[C@H](C)N(C)C(=O)[C@H](CCC(N)=O)NC(=O)[C@H](Cc2ccc(-c3ccccc3)cc2)NC(=O)[C@H](Cc2ccc(C(=O)O)cc2)NC(=O)[C@H](Cc2cccc(C)c2)NC(=O)[C@H](CC(=O)O)NC(=O)[C@H](Cc2ccc(OCC(=O)O)cc2)NC(=O)[C@H](Cc2ccc(OCC(=O)O)cc2)NC(=O)CSC[C@@H](C(=O)N[C@@H](CCN)C(=O)NCCCCCCCCCCCCC(=O)O)NC1=O [Example 2563] ({CH2CO}-Y(Carboxymethyl)Y(Carboxymethyl)D[Phe(3-Me)][Phe(4-COOH)][Bip]Q[NMeA][dL][Dab][Cha][Val(3-OH)]K(Ac)C[Dab]-{NH(CH2)12COOH}; thioether N-14) |
| 2.1 | Cc1cccc(C[C@@H]2NC(=O)[C@H](CC(=O)O)NC(=O)[C@H](Cc3ccc(C(=O)O)cc3)NC(=O)[C@H](C(C)O)NC(=O)CSC[C@@H](C(=O)N[C@@H](CCN)C(=O)NCCOCCOCC(=O)NCCCCCCCCCCC(=O)O)NC(=O)[C@H](CO)NC(=O)[C@H](C(C)(C)O)NC(=O)[C@H](CC3CCCCC3)NC(=O)[C@H](CCN)NC(=O)[C@@H](CC(C)C)NC(=O)[C@H](C)N(C)C(=O)[C@H](Cc3ccc(C(=O)O)cc3)NC(=O)[C@H](Cc3ccc(-c4ccccc4)cc3)NC(=O)[C@H](Cc3ccc(C(=O)O)cc3)NC2=O)c1 (stereo partly drawn) [Example 2562] ({CH2CO}-[Thr(3ξ)][Phe(4-COOH)]D[Phe(3-Me)][Phe(4-COOH)][Bip][Phe(4-COOH)][NMeA][dL][Dab][Cha][Val(3-OH)]SC[Dab][AEEA][Aun]-OH; thioether N-14) |
